According to the kinase profiling compilation of Christmann-Franck et al. (2016):

How the values were obtained:
Experiment in all cases: KINOMEscan competition binding
Settings in all cases: compound 10.0 µM
[1] = target: CDK16 (human) (UniProt Q00536)
[2] = target: CLK1 (human) (UniProt P49759)
[3] = target: NEK9 (human) (UniProt Q8TD19)
[4] = target: SIK2 (human) (UniProt Q9H0K1)
[5] = target: AXL (human) (UniProt P30530)
[6] = target: ZAP70 (human) (UniProt P43403)
[7] = target: MST1R (human) (UniProt Q04912)
[8] = target: LATS2 (human) (UniProt Q9NRM7)
LATS2 (human), sequence (Q9NRM7 whole entry, looked up): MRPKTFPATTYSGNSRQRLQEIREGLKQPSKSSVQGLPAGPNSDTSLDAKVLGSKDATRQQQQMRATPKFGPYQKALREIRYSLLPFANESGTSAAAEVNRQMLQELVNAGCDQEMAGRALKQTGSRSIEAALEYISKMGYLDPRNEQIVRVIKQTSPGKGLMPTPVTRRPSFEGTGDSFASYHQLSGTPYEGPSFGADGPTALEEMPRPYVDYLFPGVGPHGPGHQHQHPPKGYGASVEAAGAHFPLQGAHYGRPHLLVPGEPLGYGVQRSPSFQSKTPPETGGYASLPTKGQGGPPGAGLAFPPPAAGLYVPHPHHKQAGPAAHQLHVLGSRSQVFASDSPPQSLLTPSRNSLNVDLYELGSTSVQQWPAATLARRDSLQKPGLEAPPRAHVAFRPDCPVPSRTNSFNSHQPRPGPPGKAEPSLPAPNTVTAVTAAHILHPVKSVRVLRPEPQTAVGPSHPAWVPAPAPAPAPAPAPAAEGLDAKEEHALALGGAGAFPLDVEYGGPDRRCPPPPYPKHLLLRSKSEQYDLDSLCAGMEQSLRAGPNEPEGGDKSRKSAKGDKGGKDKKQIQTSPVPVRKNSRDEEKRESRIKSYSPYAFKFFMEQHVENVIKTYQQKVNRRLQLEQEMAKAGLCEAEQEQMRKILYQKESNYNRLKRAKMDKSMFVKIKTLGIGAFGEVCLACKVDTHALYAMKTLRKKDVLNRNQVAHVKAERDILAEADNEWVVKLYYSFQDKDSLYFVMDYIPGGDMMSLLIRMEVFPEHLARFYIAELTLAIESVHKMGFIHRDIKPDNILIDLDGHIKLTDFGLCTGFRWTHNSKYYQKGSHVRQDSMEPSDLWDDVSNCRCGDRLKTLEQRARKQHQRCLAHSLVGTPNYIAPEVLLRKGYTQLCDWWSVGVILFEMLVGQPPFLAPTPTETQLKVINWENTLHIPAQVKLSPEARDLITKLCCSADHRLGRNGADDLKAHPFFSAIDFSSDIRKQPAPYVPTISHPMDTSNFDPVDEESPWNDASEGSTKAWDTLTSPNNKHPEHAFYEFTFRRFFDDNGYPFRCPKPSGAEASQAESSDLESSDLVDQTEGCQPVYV

[9] = target: CSNK1A1L (human) (UniProt Q8N752)
CSNK1A1L (human), sequence (Q8N752 whole entry, looked up): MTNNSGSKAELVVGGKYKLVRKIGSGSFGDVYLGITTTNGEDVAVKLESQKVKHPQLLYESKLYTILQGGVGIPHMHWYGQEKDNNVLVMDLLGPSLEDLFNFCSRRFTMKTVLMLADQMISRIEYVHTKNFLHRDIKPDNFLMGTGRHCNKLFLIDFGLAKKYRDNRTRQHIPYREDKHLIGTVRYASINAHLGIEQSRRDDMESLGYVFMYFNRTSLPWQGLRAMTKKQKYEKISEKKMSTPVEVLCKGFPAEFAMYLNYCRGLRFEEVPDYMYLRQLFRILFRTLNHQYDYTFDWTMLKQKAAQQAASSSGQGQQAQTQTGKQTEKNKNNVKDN

[10] = target: SYK (human) (UniProt P43405)
[11] = target: MARK1 (human) (UniProt Q9P0L2)
[12] = target: JAK3 JH1 catalytic (human) (UniProt P52333)
[13] = target: INSRR (human) (UniProt P14616)
INSRR (human), sequence (P14616 whole entry, looked up): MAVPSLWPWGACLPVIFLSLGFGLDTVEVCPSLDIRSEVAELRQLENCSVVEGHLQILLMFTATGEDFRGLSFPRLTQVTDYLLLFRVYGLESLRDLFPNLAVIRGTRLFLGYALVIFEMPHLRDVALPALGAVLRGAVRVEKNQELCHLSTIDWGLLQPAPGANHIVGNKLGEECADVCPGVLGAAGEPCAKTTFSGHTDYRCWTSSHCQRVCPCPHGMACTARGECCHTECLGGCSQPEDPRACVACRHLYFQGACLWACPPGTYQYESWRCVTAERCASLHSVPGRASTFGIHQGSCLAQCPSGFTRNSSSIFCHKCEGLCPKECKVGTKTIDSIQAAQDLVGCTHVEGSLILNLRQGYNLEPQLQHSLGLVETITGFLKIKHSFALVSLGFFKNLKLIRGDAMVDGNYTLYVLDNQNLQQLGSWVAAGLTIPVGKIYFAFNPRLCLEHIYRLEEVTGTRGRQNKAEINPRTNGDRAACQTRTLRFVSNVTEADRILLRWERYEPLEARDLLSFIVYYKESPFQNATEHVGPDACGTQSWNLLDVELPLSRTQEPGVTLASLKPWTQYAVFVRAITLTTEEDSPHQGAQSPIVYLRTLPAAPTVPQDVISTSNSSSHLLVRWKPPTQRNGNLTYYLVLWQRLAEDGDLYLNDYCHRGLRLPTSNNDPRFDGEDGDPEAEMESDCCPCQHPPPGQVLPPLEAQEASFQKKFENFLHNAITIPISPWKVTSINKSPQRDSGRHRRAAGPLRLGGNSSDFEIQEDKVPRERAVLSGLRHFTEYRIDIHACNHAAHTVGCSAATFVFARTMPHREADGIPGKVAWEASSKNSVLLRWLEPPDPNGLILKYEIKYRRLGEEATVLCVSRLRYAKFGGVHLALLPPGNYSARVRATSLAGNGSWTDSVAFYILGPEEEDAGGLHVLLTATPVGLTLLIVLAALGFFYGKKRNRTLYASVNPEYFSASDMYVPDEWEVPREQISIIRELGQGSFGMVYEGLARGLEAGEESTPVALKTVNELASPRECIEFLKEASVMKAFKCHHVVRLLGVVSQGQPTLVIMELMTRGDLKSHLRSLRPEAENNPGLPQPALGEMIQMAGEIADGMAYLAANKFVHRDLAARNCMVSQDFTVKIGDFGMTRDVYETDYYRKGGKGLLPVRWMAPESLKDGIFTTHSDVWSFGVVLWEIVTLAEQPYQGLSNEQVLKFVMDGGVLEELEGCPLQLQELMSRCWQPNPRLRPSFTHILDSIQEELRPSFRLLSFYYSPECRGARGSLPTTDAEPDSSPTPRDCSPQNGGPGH

[14] = target: MARK2 (human) (UniProt Q7KZI7)
MARK2 (human), sequence (Q7KZI7 whole entry, looked up): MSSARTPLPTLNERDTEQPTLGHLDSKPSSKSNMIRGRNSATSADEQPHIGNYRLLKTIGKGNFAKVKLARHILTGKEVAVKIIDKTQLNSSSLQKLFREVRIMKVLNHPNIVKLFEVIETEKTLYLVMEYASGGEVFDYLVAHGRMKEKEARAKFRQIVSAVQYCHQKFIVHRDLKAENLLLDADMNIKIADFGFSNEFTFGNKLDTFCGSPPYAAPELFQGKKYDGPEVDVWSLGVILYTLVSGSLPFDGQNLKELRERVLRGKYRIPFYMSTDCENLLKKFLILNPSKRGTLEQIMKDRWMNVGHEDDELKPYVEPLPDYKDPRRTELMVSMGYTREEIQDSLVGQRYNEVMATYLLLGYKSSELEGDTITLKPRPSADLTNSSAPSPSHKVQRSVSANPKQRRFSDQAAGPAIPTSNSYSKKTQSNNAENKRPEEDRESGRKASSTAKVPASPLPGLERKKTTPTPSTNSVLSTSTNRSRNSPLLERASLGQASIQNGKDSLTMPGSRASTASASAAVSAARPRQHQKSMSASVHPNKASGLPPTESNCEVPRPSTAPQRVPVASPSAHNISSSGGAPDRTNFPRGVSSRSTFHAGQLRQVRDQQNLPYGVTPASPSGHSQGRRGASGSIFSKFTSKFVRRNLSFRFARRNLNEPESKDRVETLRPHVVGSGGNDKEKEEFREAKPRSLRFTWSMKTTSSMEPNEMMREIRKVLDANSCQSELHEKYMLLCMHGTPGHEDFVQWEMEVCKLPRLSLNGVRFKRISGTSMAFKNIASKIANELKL

[15] = target: MYO3A (human) (UniProt Q8NEV4)
[16] = target: PRKAA1 (human) (UniProt Q13131)
[17] = target: SRPK2 (human) (UniProt P78362)
[18] = target: PRKX (human) (UniProt P51817)
[19] = target: ALK (human) (UniProt Q9UM73)
[20] = target: NEK6 (human) (UniProt Q9HC98)
[21] = target: MAPK3 (human) (UniProt P27361)
[22] = target: STK16 (human) (UniProt O75716)
STK16 (human), sequence (O75716 whole entry, looked up): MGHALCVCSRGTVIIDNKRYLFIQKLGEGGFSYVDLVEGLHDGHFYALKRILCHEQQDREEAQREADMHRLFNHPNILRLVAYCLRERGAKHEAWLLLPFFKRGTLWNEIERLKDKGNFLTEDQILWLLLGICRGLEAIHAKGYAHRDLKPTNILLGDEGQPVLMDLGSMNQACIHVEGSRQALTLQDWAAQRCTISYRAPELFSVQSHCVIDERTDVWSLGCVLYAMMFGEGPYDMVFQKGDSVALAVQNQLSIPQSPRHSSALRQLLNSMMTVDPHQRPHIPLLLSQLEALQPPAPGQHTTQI

[23] = target: PRKACB (human) (UniProt P22694)
[24] = target: MARK4 (human) (UniProt Q96L34)
[25] = target: CDK9 (human) (UniProt P50750)
[26] = target: JAK1 JH2 pseudokinase (human) (UniProt P23458)
JAK1 JH2 pseudokinase (human), sequence (P23458 whole entry, looked up): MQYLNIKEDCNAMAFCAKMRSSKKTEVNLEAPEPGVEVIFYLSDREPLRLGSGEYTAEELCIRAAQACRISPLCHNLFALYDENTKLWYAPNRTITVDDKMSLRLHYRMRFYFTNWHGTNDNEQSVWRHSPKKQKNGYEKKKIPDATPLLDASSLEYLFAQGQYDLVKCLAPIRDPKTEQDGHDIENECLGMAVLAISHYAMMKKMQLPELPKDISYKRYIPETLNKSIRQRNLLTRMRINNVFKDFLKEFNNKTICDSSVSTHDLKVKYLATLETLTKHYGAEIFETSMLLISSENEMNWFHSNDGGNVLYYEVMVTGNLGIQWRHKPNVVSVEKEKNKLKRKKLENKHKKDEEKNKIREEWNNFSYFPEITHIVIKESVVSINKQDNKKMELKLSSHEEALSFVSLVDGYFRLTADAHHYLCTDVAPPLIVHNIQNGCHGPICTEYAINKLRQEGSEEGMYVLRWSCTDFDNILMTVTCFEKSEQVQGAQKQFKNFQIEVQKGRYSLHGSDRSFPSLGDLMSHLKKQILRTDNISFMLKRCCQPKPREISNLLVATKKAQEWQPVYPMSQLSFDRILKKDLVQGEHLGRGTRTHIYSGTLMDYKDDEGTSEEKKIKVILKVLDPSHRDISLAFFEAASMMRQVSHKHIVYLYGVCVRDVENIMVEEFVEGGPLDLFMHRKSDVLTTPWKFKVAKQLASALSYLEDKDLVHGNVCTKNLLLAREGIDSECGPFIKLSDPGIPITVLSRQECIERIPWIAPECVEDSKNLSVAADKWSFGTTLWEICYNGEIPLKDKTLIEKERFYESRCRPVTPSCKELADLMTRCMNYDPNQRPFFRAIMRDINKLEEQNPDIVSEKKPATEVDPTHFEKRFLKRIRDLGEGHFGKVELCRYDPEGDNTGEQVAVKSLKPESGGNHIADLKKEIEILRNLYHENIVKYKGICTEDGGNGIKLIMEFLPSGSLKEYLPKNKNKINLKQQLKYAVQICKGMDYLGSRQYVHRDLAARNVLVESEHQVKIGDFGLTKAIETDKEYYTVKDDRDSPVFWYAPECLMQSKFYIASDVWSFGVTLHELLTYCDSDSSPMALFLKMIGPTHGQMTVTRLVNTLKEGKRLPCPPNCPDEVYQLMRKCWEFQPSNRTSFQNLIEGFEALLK

[27] = target: TGFBR2 (human) (UniProt P37173)
[28] = target: STK25 (human) (UniProt O00506)
[29] = target: CAMKK1 (human) (UniProt Q8N5S9)
[30] = target: CDC42BPA (human) (UniProt Q5VT25)
[31] = target: ROS1 (human) (UniProt P08922)
[32] = target: CLK3 (human) (UniProt P49761)
[33] = target: CAMK2D (human) (UniProt Q13557)
[34] = target: EPHA3 (human) (UniProt P29320)
[35] = target: IKBKE (human) (UniProt Q14164)
[36] = target: GSK3A (human) (UniProt P49840)
[37] = target: RPS6KA1 KD1 (human) (UniProt Q15418)
[38] = target: SLK (human) (UniProt Q9H2G2)
[39] = target: MAP4K2 (human) (UniProt Q12851)
[40] = target: STK38L (human) (UniProt Q9Y2H1)

Cn1c(=O)n(-c2ccc(C(C)(C)C#N)cc2)c2c3cc(-c4cnc5ccccc5c4)ccc3ncc21
kinase still bound, per cent of control [1]: 100% | kinase still bound, per cent of control [2]: 23% | kinase still bound, per cent of control [3]: 100% | kinase still bound, per cent of control [4]: 100% | kinase still bound, per cent of control [5]: 100% | kinase still bound, per cent of control [6]: 100% | kinase still bound, per cent of control [7]: 100% | kinase still bound, per cent of control [8]: 100% | kinase still bound, per cent of control [9]: 100% | kinase still bound, per cent of control [10]: 100% | kinase still bound, per cent of control [11]: 100% | kinase still bound, per cent of control [12]: 100% | kinase still bound, per cent of control [13]: 100% | kinase still bound, per cent of control [14]: 100% | kinase still bound, per cent of control [15]: 100% | kinase still bound, per cent of control [16]: 100% | kinase still bound, per cent of control [17]: 100% | kinase still bound, per cent of control [18]: 100% | kinase still bound, per cent of control [19]: 100% | kinase still bound, per cent of control [20]: 100% | kinase still bound, per cent of control [21]: 100% | kinase still bound, per cent of control [22]: 100% | kinase still bound, per cent of control [23]: 100% | kinase still bound, per cent of control [24]: 100% | kinase still bound, per cent of control [25]: 100% | kinase still bound, per cent of control [26]: 100% | kinase still bound, per cent of control [27]: 100% | kinase still bound, per cent of control [28]: 100% | kinase still bound, per cent of control [29]: 100% | kinase still bound, per cent of control [30]: 100% | kinase still bound, per cent of control [31]: 100% | kinase still bound, per cent of control [32]: 100% | kinase still bound, per cent of control [33]: 100% | kinase still bound, per cent of control [34]: 100% | kinase still bound, per cent of control [35]: 100% | kinase still bound, per cent of control [36]: 100% | kinase still bound, per cent of control [37]: 100% | kinase still bound, per cent of control [38]: 100% | kinase still bound, per cent of control [39]: 11% | kinase still bound, per cent of control [40]: 100%

C=CC(=O)Nc1cccc(Oc2nc(Nc3ccc(N4CCN(C)CC4)cc3OC)ncc2Cl)c1
kinase still bound, per cent of control [1]: 100% | kinase still bound, per cent of control [2]: 13% | kinase still bound, per cent of control [3]: 100% | kinase still bound, per cent of control [4]: 20% | kinase still bound, per cent of control [5]: 100% | kinase still bound, per cent of control [6]: 100% | kinase still bound, per cent of control [7]: 100% | kinase still bound, per cent of control [8]: 100% | kinase still bound, per cent of control [9]: 100% | kinase still bound, per cent of control [10]: 100% | kinase still bound, per cent of control [11]: 11% | kinase still bound, per cent of control [12]: 0.4% | kinase still bound, per cent of control [13]: 13% | kinase still bound, per cent of control [14]: 100% | kinase still bound, per cent of control [15]: 28% | kinase still bound, per cent of control [16]: 28% | kinase still bound, per cent of control [17]: 100% | kinase still bound, per cent of control [18]: 100% | kinase still bound, per cent of control [19]: 0.7% | kinase still bound, per cent of control [20]: 9% | kinase still bound, per cent of control [21]: 100% | kinase still bound, per cent of control [22]: 27% | kinase still bound, per cent of control [23]: 100% | kinase still bound, per cent of control [24]: 16% | kinase still bound, per cent of control [25]: 100% | kinase still bound, per cent of control [26]: 100% | kinase still bound, per cent of control [27]: 100% | kinase still bound, per cent of control [28]: 100% | kinase still bound, per cent of control [29]: 18% | kinase still bound, per cent of control [30]: 100% | kinase still bound, per cent of control [31]: 5% | kinase still bound, per cent of control [32]: 100% | kinase still bound, per cent of control [33]: 100% | kinase still bound, per cent of control [34]: 100% | kinase still bound, per cent of control [35]: 100% | kinase still bound, per cent of control [36]: 100% | kinase still bound, per cent of control [37]: 12% | kinase still bound, per cent of control [38]: 100% | kinase still bound, per cent of control [39]: 100% | kinase still bound, per cent of control [40]: 100%
